Assay results published in paper PMC6487176, “Specific Binding Peptides from Rv3632: A Strategy for Blocking Mycobacterium tuberculosis Entry to Target Cells?” (BioMed Research International, 2019).
Where no end group is shown, it is not given here.

Legend:
Assay type in all cases: cell-based
[1] = test system: Mtb H37Rv entry to U937 macrophages; assay: microbe, parasite or virus in culture; details: Mycobacterium tuberculosis, U-937, 480 h, inhibition control at 30 μM, triplicate, read-out: inhibition of mycobacterial entry to U937 monocyte-derived macrophages
[2] = test system: Mtb H37Rv entry to A549 alveolar epithelial cells; assay: microbe, parasite or virus in culture; details: Mycobacterium tuberculosis, A549, 480 h, inhibition control at 30 μM, triplicate, read-out: inhibition of mycobacterial entry to A549 epithelial cells
U937 macrophage line = details: MTT; peptide 20 and 200 μM in 1X PBS, 2 h; 5 x 10^4 cells/well; absorbance 570 nm
Method: Rv3632 peptides' cytotoxic effect was evaluated by viability assay involving MTT (3- (4,5-dimethylthiazol-2-yl) -2,5-diphenyltetrazolium bromide) tetrazolium reduction, where 5 x 10^4 cells/well were incubated for 2 hours with each peptide at 20 and 200 μM in 1X PBS, using the previously mentioned incubation conditions for the invasion assay; 10% SDS was used as cytotoxicity control. After incubation time had elapsed, 10μL MTT were added to each well and left for 12 hours; the formazan crystals so formed were dissolved with sodium dodecyl sulfate (SDS) for reading absorbance at 570nm on a spectrophotometer (Multiskan GO, Thermo Scientific). Multiskan GO (v. 3.2) software was used for analysing the data.

C=C1[C@@H](C)[C@H]2[C@H](Cc3ccccc3)NC(=O)[C@]23[C@H](OC(C)=O)/C=C/[C@@](C)(O)C(=O)[C@@H](C)C/C=C/[C@H]3[C@@H]1O [Cytochalasin, Cytochalasin D]
inhibition at 30 µM [1]: 80% | inhibition at 30 µM [2]: 60%

TLSTYMRFKDLELRYARIAR [compound 39255]
cytotoxic effect on the U937 macrophage line, result in words (U937 macrophage line): without having a cytotoxic effect
